Each structure is given as a SMILES string. A value given as a limit tells only on which side of the number the result lay.

Data set [1] is described as follows: Stability in concentrated trimethylglycine (TMG) aqueous solution followed by capillary electrophoresis. The data set is classed as physicochemical. The conditions noted are these: dissolved in 50% w/v TMG, diluted to final TMG 25%; CE at 230 nm. The text has this:
Kadokawa et al.[35] reported that a highly concentrated solution of trimethyl glycine (TMG, also known as betaine) is able to improve the solubility of cisplatin in water without affecting the pharmacological proprieties of this drug. The mechanism behind this effect seems to lie in the hydrogen bond acceptor property of the carboxylate of TMG, which establishes hydrogen bonds with the amino groups of cisplatin. Betaine is a nontoxic compound and is highly soluble in water. On the basis of this study, we decided to test the solubility of 3 in a highly concentrated (50% w/v) TMG aqueous solution. The platinum compound was soluble enough to allow investigations with the established protocol for capillary electrophoresis. TMG has a strong absorption at low wavelengths, and therefore, a wavelength of 230 nm was chosen instead of 195 nm for recording the electropherograms with TMG.
(§1) A solution of sodium tetraborate (final borate concentration of 50 mM) and sodium dodecyl sulfate (100 mM) was used as a background electrolyte (BGE). The pH of the BGE was adjusted to 9.3 by titration with 1 M NaOH. Every new capillary was rinsed with 1 M NaOH (45 min), water (45 min), and BGE (45 min) before the first use. The capillary was kept on a constant temperature of 25 °C, whereas the sample carousel was temperature-controlled at 37 °C. Sample injection was performed in hydrodynamic mode, applying a pressure of 50 mbar for 2 s on the inlet vial. The separation voltage was set at +20 kV. If not stated differently, a wavelength of 195 nm was employed for the DAD detector. The analytic window was evaluated by using dodecaphenone as a micellar marker and methanol (HPLC grade) as an electroosmotic flow (EOF) marker. The run time required for the analysis was estimated to be 25 min. The capillary was flushed before every run with 0.1 M NaOH (3 min), water (3 min), and BGE (5 min). Every value is calculated from at least three independent measurements. The half-lives were presented as the mean ± standard deviation. All of the samples, buffers, and washing solutions were membrane-filtered (0.22 μm pore size). All samples employed for stability experiments were prepared using benzoic acid as an internal standard (IS).

The subject of data set [2] is MCF-7 breast cancer cell line. The data set can be described thus: MTT metabolic activity (cytotoxicity) assay, MCF-7. The conditions noted are these: 72 h incubation. The data set is classed as cell-based. The protocol:
(§2) In order to determine the antitumor activity of the platinum complexes, in vitro cytotoxicity tests were performed. Compounds 1–4 were tested with cisplatin as a reference on the breast cancer cell line MCF-7 and the colon carcinoma cell line HT-29. Complexes 1, 4, and 5, as well as the ligand (but-3-en-1-yl 2-acetoxybenzoate, 6) were additionally evaluated on MDA-MB-231 cells and A2780cis cells, also using cisplatin as a reference. The metabolic activity as an indicator of cytotoxicity was determined by a classical 3-(4,5-dimethylthiazol-2-yl)-2,5-diphenyltetrazoliumbromid (MTT) assay.
(§3) The cell lines A2780cis and MDA-MB-231 were cultivated in RPMI 1640 without phenol red (PAN Biotech, Aidenbach, Germany), supplemented with L-glutamine (2 mM), 100 μg/mL penicillin, 100 μg/mL streptomycin, and FCS (10%) (all from Invitrogen Corporation, Gibco, Paisley, Scotland) at 37 °C in a 5% CO2/95% air atmosphere, and passaged twice per week. To maintain resistance, A2780cis cells were incubated every second week with cisplatin (1 μM). The cell lines MCF-7 and HT-29 were grown in DMEM without phenol red (PAN Biotech, Aidenbach, Germany), containing L-glutamine, 100 μg/mL penicillin, 100 μg/mL streptomycin, sodium pyruvate ([…]) (PAN Biotech), and FCS (10%) under the same conditions as the other cell lines.
(§4) The exponentially growing cell lines were seeded at a density of 2000 cells/well for MCF-7 cells, 4000 cells/well for HT-29 cells and MDA-MB-231 cells, and 8000 cells/well for A2780cis cells, respectively, into clear flat-bottom 96-well plates in triplicates. Following 24 h of incubation for adherence at 37 °C in a humidified atmosphere (5% CO2/95% air), the compounds were added to reach the desired concentrations between 10 and 100 μM, respectively. All stock solutions were prepared in dimethylformamide at a concentration of 100 mM and were then diluted with the respective cell-culture medium to the appropriate concentrations. After another 72 h of incubation, the cellular metabolic activity was measured by employing a MTT assay. Hereby, the yellow tetrazolium salt is converted to a purple formazan salt by the functioning mitochondria. These purple crystals are then dissolved in DMSO and can be quantified via absorption measurements at 570 and 420 nm. The optical density of the particular medium was subtracted in order to exclude the unspecific staining caused by the FCS-containing medium. The values were calculated with Excel 2019 (Microsoft, Redmond, WA, USA) using nonlinear regression and the decal logarithm of the inhibitor versus variable slope equation, while the top constraint was set to 100%.

For data set [3], the system named is HT-29 colon carcinoma cell line. The data set can be described thus: MTT metabolic activity (cytotoxicity) assay, HT-29. Format: cell-based. The note with it: 72 h incubation. On the procedure:
as §2, §3, §4

The nature of data set [4]: Lipophilicity estimate from MEKC experiments (buffer/micelle partition). The data set is classed as physicochemical. The note with it: three independent experiments (one for 5 and 6). On the procedure:
The lipophilicity of the tested compounds was estimated on the basis of MEKC experiments similar to Herbert and Dorsey[37] (see Table 7). The values estimated in this way were compared with theoretical values obtained from two different methods: for platinum complexes, a previously established method[38] was used, while for the organic ligand, the Osiris Property Explorer[39] was employed.
as §1

The target of another data set is T1, human recombinant COX-1 (Homo sapiens, UniProt P23219).
T1 construct: purchased Cayman Chemicals
T1 sequence (P23219 24-599): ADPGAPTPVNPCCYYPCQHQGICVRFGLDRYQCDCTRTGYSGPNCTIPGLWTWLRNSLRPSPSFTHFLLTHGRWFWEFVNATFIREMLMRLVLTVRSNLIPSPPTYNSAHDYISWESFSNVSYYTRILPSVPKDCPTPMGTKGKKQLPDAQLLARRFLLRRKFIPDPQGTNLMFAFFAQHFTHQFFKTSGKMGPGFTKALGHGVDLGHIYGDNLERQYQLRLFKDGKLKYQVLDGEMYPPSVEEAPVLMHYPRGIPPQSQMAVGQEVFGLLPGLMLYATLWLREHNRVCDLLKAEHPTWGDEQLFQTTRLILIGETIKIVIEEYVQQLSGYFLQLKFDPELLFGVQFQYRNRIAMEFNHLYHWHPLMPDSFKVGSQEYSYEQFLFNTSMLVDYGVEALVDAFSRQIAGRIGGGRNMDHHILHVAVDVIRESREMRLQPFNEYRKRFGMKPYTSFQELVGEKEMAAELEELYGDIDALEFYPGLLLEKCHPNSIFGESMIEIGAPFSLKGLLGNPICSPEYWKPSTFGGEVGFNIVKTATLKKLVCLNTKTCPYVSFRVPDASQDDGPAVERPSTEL
Briefly: COX-1 inhibition, enzyme immunoassay (COX Inhibitor Screening Assay). The note with it: 2 min incubation. Format: biochemical. The protocol:
The incubation time of the compounds with the respective isoenzymes was exactly 2 min. The results are presented as the mean ± SD of three independent experiments with two replicates of each experiment.

For a further data set, the target named is T2, human recombinant COX-2 (Homo sapiens, UniProt P35354).
T2 construct: purchased Cayman Chemicals
T2 sequence (P35354 18-604): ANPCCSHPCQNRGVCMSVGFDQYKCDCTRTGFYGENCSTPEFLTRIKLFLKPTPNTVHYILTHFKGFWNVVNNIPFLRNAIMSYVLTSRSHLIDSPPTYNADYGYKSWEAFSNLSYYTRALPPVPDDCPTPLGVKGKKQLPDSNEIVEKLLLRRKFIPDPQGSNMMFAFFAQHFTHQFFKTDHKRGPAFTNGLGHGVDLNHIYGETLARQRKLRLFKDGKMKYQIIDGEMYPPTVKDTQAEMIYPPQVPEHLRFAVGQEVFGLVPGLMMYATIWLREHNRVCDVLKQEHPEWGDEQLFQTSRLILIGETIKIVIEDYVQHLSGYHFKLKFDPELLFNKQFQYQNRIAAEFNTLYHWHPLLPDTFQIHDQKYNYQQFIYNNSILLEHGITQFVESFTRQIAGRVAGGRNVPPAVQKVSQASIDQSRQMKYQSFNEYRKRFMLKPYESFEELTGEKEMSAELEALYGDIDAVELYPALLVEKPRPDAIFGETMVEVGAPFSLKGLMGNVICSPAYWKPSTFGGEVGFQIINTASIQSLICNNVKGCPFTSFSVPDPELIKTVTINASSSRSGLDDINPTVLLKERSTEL
The data set can be described thus: COX-2 inhibition, enzyme immunoassay (COX Inhibitor Screening Assay). The note with it: 2 min incubation. The data set is classed as biochemical. On the procedure: Metal complexes containing an ASA moiety have been reported as inhibitors for COX-1/-2 previously.[4],[14],[40]−[44] […] Hereby, the isolated enzymes were treated with final concentrations of 10 and 25 μM of substances 1, 4, 5, and 6.
Inhibition of the isolated human recombinant COX-1 and COX-2 isoenzymes by the platinum complexes (10 and 25 μM) was evaluated using an enzyme immunoassay (EIA) (COX Inhibitor Screening Assay, Cayman Chemicals, Ann Arbor, Mi, USA) following the manufacturer’s protocol. The incubation time of the compounds with the respective isoenzymes was exactly 2 min. The results are presented as the mean ± SD of three independent experiments with two replicates of each experiment. The untreated control was set at 0% inhibition of the COX activity.

For data set [5] the following is noted: cited from earlier work.
The subject of data set [6] is MDA-MB-231 breast cancer cell line. The data set can be described thus: MTT metabolic activity (cytotoxicity) assay, MDA-MB-231. The data set is classed as cell-based. The conditions noted are these: for IC50: MTT, 72 h incubation. On the procedure:
as §2, §3, §4

Data set [7] deals with A2780cis ovarian carcinoma cell line (cisplatin-resistant). The data set can be described thus: MTT metabolic activity (cytotoxicity) assay, A2780cis. The note with it: for IC50: MTT, 72 h incubation. The data set is classed as cell-based. On the procedure: as §2, §3, §4
Data set [8] is described as follows: Stability in aqueous solution followed by capillary electrophoresis. The data set is classed as physicochemical. The note with it: water; CE, samples at 37 °C. The protocol:
The stability of complexes 1–4 was tested in an aqueous solution, to investigate how the different ways of amino acid coordination impacts aqueous degradation (see Table 4). The stability of complex 5 was previously measured in a 50% methanolic solution.[4]
as §1

Setting [9] is: 25 μM, without compounds set at 100%.

As to `C=C.NC(Cc1c[nH]cn1)C(=O)O.[Cl][Pt]` [compound 3, (L-Histidinato-N,N)chlorido(η^2-ethene)platinate(II)], in data set [1], the “half-life time (τ1/2) in TMG solution” value came out at 12.0 ± 3.0 h. The IC50 in data set [2] and in data set [3] was greater than 100 µM throughout. Besides, the “coefficient of partition between buffer and micelles (k′), average” value in data set [4] is given as 2.392 ± 0.185.
Consider `C=C.[Cl-].[Cl-].[Cl-].[K+].[Pt+2]` [ZS, potassium trichloro(ethylene)platinate(II), reference compound], for which the “% Inhibition COX-1” value at human recombinant COX-1 (10 μM) is 90.83%. Besides, on human recombinant COX-2 (10 μM), the “% Inhibition COX-2” value is listed as 8.30%. In addition, the “time to quantitative conversion to the trans-aquo complex after dissolution in water” value in data set [5] (water) was no more than 2 min.
Regarding `N.N.[Cl][Pt][Cl]` [cisplatin, reference compound], the half-inhibitory concentration (IC50) (as a rule, the concentration at which inhibition is half-maximal) in data set [2] was 29 ± 4.28 µM; in data set [3], 13.9 ± 5.16 µM; in data set [6], 13.3 ± 0.87 µM; in data set [7] it was 14.8 ± 1.23 µM. In [6] (setting [9]), the “metabolic activity (residual) on MDA-MB-231” value is given as 8.71%. Moreover, in data set [7] (setting [9]), the “metabolic activity (residual) on A2780cis” value is recorded as 4.71%.
For `C=C.NCCC(=O)[O][Pt][Cl]` [2b, (Ethylene,O-trans)(β-alaninato-N,O)chlorido(η^2-ethene)platinate(II)], in data set [8], the “half-life time (τ1/2) in water” value turned out to be 1.7 ± 0.2 h. Further, the “half-life time (τ1/2) in TMG solution” value in [1] was 0.77 ± 0.08 h. Also, the IC50 in [2] and in data set [3] was greater than 100 µM each time. For the same compound, in data set [4], the “coefficient of partition between buffer and micelles (k′), average” value is 3.099 ± 0.149.
With `C=CCCOC(=O)c1ccccc1OC(C)=O` [compound 6, but-3-en-1-yl 2-acetoxybenzoate], the IC50 in [6] (Homo sapiens, MDA-MB-231) is greater than 50 µM; in [7] (A2780cis), greater than 50 µM. In addition, the inhibition – broadly, the relative decrease from the control value, in per cent – at 10 µM at human recombinant COX-1 (10 μM) is 23.7 ± 9.86%; at human recombinant COX-2 (10 μM), 15.7 ± 14.8%. The inhibition at 25 µM on human recombinant COX-1 (25 μM) turned out to be 16.4 ± 8.64%; at human recombinant COX-2 (25 μM), 16.9 ± 17.2%.
Take `C=CCCOC(=O)c1ccccc1OC(C)=O.[Cl][Pt-]([Cl])[Cl].[K+]` [compound 5, potassium {trichlorido[η^2-(but-3-en-1-yl)-2-acetoxybenzoate]platinate(II)}]: the IC50 in [6] and in [7] was greater than 50 µM in each case. Besides, the results for the “% Inhibition COX-1” value at human recombinant COX-1 (10 μM) and on human recombinant COX-1 (25 μM) were 67.84 ± 10.57% and 80.49 ± 11.10%, respectively. The figures for the “% Inhibition COX-2” value at human recombinant COX-2 (10 μM) and at human recombinant COX-2 (25 μM) were 39.56% and 63.10 ± 8.07%, respectively. Also, in data set [5] (50% methanolic solution, previously measured), the “half-life in 50% methanolic solution” value is given as 69.6 ± 3.0 h.
On to `CC(=O)Oc1ccccc1C(=O)O` [ASA, acetylsalicylic acid, reference compound], for which the inhibition at 10 µM at human recombinant COX-1 (10 μM) amounted to 17.3%; at human recombinant COX-2 (10 μM) it was 9.33%.

The record behind these values is article PMC10683014, “Amino Acids as Chelating Ligands for Platinum: Enhanced Stability in an Aqueous Environment Promoted by Biocompatible Molecules” (Journal of Medicinal Chemistry, 2023).
